Among the data in ChEMBL document CHEMBL1132558, “A new single-photon emission computed tomography imaging agent for serotonin transporters: [123I]IDAM, 5-iodo-2-((2-((dimethylamino)methyl)phenyl)thio)benzyl alcohol” (J Med Chem, 1999) are Ki values, retold here.

Assay [1] has as its target T1, Sodium-dependent dopamine transporter (Homo sapiens, UniProt Q01959). Kind of assay: Concentration inhibiting Dopamine transporter.
Assay [2] is filed under the species Rattus norvegicus. Put plainly: Concentration inhibiting 5-HT reuptake in rat brain synaptosomes. The class given is functional.
Assay [3] concerns the target T1, Sodium-dependent dopamine transporter. Kind of assay: In vitro binding affinity against Dopamine transporter in LLC-PK1 cell membranes. It counts as cell-based, Sus scrofa.
For assay [4], the species on record is Rattus norvegicus. Put plainly: Concentration inhibiting serotonin uptake in rat brain synaptosomes. It counts as functional.
Assay [5] is filed under the species Rattus norvegicus. Kind of assay: Concentration inhibiting norepinephrine uptake in rat brain synaptosomes. It counts as functional.
For assay [6], the target named is Sodium-dependent serotonin transporter (Homo sapiens, UniProt P31645). Kind of assay: In vitro binding affinity against Serotonin transporter (SERT) from LLC-PK1 cell membranes. The class given is cell-based, Sus scrofa.

Usually Ki stands for the equilibrium dissociation constant of an inhibitor or competing ligand from its target. Higher therefore signals weaker binding.

T1 sequence (Q01959 whole entry): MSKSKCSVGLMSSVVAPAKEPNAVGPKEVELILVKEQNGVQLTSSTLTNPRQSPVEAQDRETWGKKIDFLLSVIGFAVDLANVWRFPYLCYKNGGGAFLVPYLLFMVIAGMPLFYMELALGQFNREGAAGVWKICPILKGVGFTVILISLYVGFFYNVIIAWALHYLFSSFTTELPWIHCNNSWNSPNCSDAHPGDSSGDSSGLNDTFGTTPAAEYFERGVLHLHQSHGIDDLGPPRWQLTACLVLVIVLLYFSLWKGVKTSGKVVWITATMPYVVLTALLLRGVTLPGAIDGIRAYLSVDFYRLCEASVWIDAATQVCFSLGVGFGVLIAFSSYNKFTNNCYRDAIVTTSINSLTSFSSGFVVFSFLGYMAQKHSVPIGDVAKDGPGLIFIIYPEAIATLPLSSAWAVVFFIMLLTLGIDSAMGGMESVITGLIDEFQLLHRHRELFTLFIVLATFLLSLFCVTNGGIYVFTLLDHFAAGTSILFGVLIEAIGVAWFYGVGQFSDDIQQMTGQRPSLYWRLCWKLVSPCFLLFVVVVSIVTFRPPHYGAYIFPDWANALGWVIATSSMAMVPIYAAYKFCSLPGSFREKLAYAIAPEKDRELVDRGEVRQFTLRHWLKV
Chain of Sodium-dependent serotonin transporter (P31645 whole entry): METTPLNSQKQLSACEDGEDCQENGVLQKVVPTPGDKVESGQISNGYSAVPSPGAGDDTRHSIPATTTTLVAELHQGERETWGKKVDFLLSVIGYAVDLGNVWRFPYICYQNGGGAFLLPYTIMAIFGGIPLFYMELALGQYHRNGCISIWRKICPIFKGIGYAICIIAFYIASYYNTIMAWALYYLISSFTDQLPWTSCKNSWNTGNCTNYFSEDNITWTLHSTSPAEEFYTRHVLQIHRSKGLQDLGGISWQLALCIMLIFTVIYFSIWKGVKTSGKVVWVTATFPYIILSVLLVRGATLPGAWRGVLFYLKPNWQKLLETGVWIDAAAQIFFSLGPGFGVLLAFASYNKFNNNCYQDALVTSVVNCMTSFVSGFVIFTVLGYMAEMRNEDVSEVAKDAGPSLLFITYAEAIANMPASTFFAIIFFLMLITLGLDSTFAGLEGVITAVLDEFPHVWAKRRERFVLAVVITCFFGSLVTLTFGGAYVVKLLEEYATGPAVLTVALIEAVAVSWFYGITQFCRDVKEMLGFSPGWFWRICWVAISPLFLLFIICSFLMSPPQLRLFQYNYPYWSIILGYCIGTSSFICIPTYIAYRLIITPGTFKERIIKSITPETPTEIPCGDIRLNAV

For the compound `CSc1ccc([C@H]2CN3CCC[C@H]3c3ccccc32)cc1`, the results for the Ki (in assay [1]; in the assay listed under Rattus norvegicus [2]; in assay [3]) were 23.5 nM, 0.4 nM and 112 nM, respectively.

On to `CN(C)Cc1ccccc1Sc1ccc(Cl)cc1CO`, for which the Ki in the assay listed under Rattus norvegicus [4] is 2.1 nM; in the assay listed under Rattus norvegicus [5], 55 nM.

On to `CN(C)Cc1ccccc1Sc1ccc(Br)cc1CO`, for which the Ki was 0.52 nM in assay [6] and > 10000 nM in assay [3].

Turning to `CN(C)Cc1ccccc1Sc1ccc(I)cc1CO`, the results for the Ki in assay [6] and in assay [3] were 0.097 nM and > 10000 nM, respectively.
